Where two headings read alike, the source gives them in different places.
Key:
[1] = system: MDCK-hOCT1 cells; test: MTT drug sensitivity assay in MDCK-hOCT1 cells; type: cell-based, canine
Protocol: (§1) Cytotoxicity of the platinum-based compounds was measured by MTT (thiazolyl blue tetrazolium bromide) assay. Cells were seeded in 100 μl of the culture medium without any antibiotics in 96-well plates at a predetermined cell density. For HEK 293 cells, poly-D-lysine coated plates were used. […] For the OCT inhibitor studies, the inhibitors (i.e., disopyramide or cimetidine) were added to the medium at a specified concentration immediately before the addition of the platinum-based compounds. After incubation for a specified time period, the drug-containing medium was replaced with fresh, drug-free medium and the incubation was continued for a total of 72 hours (start from the addition of platinum-based compounds). Then, the MTT assay was performed similarly as described in Alley et al., Cancer Res., 48:589-601 (1988). […] The maximal cell growth was the cell growth in the medium without any platinum-based compounds; C is the concentration of the platinum-based compound, and γ is the slope factor.
(§2) Briefly, the cells were seeded in 96-well plates at a density of 5,000 cells/well for the transfected MDCK cells or 12,000 cells/well for the transfected HEK 293 cells. The platinum-based drugs were added on the following day. After the specified time periods of drug exposure, the drug-containing medium was replaced with fresh, drug-free medium, and the incubation was continued for a total of 72 hours (start from the time when the drug was added). After incubation, the cell growth was determined by an MTT assay. Data are expressed as mean±SD from 3 to 6 independent experiments with each performed in quadruplicate. The resistance factor (RF) was defined as the ratio of the mean IC50 value in the MOCK cells to that in the OCT-transfected cells.
Briefly, MDCK cells were seeded at a density of 5,000 cells/well in 96-well plates and exposed to the test compounds for 7 hours on the following day. After incubation for a total of 72 hours, the cell growth was determined by an MTT assay. The data for carboplatin was taken from Table 1 and was not determined simultaneously with the other compounds. The resistance factor (RF) was defined as the ratio of the mean IC50 value in MDCK-MOCK cells to that in MDCK-hOCT1 cells. Data are expressed as mean±SD from six measurements, and each measurement was performed in quadruplicate.

[2] = system: HEK-hOCT3 cells; test: MTT drug sensitivity assay in HEK-hOCT3 cells; type: cell-based, human
Protocol: as §1, §2

[3] = system: MDCK-hOCT1 cells; test: Cellular accumulation of platinum in MDCK-hOCT1 cells (ICP-MS); type: in vitro ADME, canine; conditions: 2-hr exposure
Protocol: (§3) For the inhibitor studies, the incubation medium also contained disopyramide (150 μM). […] For the inhibitor studies, the incubation medium also contained cimetidine (1.5 mM). […] After drug exposure, the cells were washed with ice-cold PBS three times and harvested by scraping and centrifugation. The cell-associated platinum was determined by ICP-MS and normalized for protein content. Data are expressed as mean±SD from a single experiment performed in triplicate. Experiments were replicated for OCT1 and OCT2, and similar results were obtained.
(§4) The cellular accumulation of platinum was determined as described in Holzer et al., Mol. Pharmacol., 66:817-823 (2004) with some modifications. Briefly, the cells were grown in 100 mm×20 mm dishes in the culture medium without any antibiotics to over 90% confluence. For HEK 293 cells, poly-D-lysine coated dishes were used. For platinum accumulation, the cells were incubated in the culture medium containing the indicated concentrations of the platinum compounds at 37° C. in 5% CO2 for 2 hr unless specified. After incubation, the dishes were immediately placed on ice and the cells were washed with 6 ml of ice-cold PBS for three times and collected with a rubber policeman. The cell pellets were obtained by centrifugation at 400×g and at 4° C. for 15 min. For the OCT inhibitor studies, the incubation medium also contained the indicated inhibitor (i.e., disopyramide or cimetidine) in addition to the platinum-based compounds. The resulting cell pellets were then dissolved into 200 μl of 70% nitric acid at 65° C. for at least 2.5 hours, and then distilled water containing 10 ppb of iridium (Sigma) and 0.1% Triton X-100 was added to the samples to dilute nitric acid to 7%. The platinum content was measured by inductively plasma coupled mass spectrometry (ICP-MS) in the Analytical Facility at the University of California at Santa Cruz (Santa Cruz, Calif.). Cell lysates from a set of identical cultures were used for BCA protein assay.

[4] = system: MDCK-MOCK cells; test: Cellular accumulation of platinum in MDCK-MOCK cells (ICP-MS); type: in vitro ADME, canine; conditions: 2-hr exposure
Protocol: as §3, §4

[5] = system: HEK-hOCT2 cells; test: Cellular accumulation of platinum in HEK-hOCT2 cells (ICP-MS); type: in vitro ADME, human; conditions: 2-hr exposure
Protocol: as §3, §4

[6] = system: HEK-MOCK cells; test: Cellular accumulation of platinum in HEK-MOCK cells (ICP-MS); type: in vitro ADME, human; conditions: cimetidine 1.5 mM
Protocol: as §3
The cellular accumulation of platinum was determined as described in Holzer et al., Mol. Pharmacol., 66:817-823 (2004) with some modifications. Briefly, the cells were grown in 100 mm×20 mm dishes in the culture medium without any antibiotics to over 90% confluence. For HEK 293 cells, poly-D-lysine coated dishes were used. For platinum accumulation, the cells were incubated in the culture medium containing the indicated concentrations of the platinum compounds at 37° C. in 5% CO2 for 2 hr unless specified. […] The platinum content was measured by inductively plasma coupled mass spectrometry (ICP-MS) in the Analytical Facility at the University of California at Santa Cruz (Santa Cruz, Calif.). […]

Question: Which IC50 ([1]; SAR study Table 4, 7 hours of drug exposure, read-out: IC50 MDCK-hOCT1) does the source give for O=C1[O][Pt]2([NH][C@@H]3CCCC[C@H]3[NH]2)[O]C1=O [oxaliplatin] here?
Answer: Its IC50 is 0.48 ± 0.19 µM.

Question: And the IC50 ([1]; co-incubation with disopyramide 150 μM, read-out: IC50 in MDCK-hOCT1, disopyramide-treated)?
Answer: Its IC50 is 22.8 ± 10.5 µM.

Question: And the IC50 ([1]; disopyramide study (FIG. 2D), without disopyramide, read-out: IC50 in MDCK-hOCT1, control)?
Answer: The IC50 was 3.79 ± 1.57 µM.

Question: What about the IC50 ([1]; drug exposure 7 hour, MTT at 72 hours, Table 1, read-out: IC50 MDCK-hOCT1) of the same compound?
Answer: The IC50 was 3.89 ± 1.3 µM.

Question: What about the IC50 ([1]; drug exposure 24 hour, MTT at 72 hours, Table 1, read-out: IC50 MDCK-hOCT1) of the same compound?
Answer: Its IC50 is 1.79 ± 0.58 µM.

Question: And the IC50 ([1]; drug exposure 72 hour, Table 1, read-out: IC50 MDCK-hOCT1)?
Answer: Its IC50 is 1.68 ± 0.27 µM.

Question: What about the IC50 ([2]; drug exposure 7 hour) of the same compound?
Answer: Its IC50 is 2.22 ± 0.41 µM.

Question: What about the IC50 ([2]; drug exposure 24 hour) of the same compound?
Answer: Its IC50 is 0.62 ± 0.19 µM.

Question: And the IC50 ([2]; drug exposure 72 hour)?
Answer: The IC50 was 0.69 ± 0.19 µM.

Question: What about the “cellular platinum accumulation rate in MDCK-hOCT1, disopyramide-treated” value ([3]; 3 μM, disopyramide 150 μM) of the same compound?
Answer: The value was 4.04±0.04 pmol/mg protein-hr.

Question: What about the “cellular platinum accumulation rate in MDCK-hOCT1” value ([3]; drug 3 μM) of the same compound?
Answer: The value was 8.53±0.52 pmol/mg protein-hr.

Question: What about the “effect of disopyramide on platinum accumulation rate in MDCK-hOCT1” value ([3]; disopyramide 150 μM) of the same compound?
Answer: The value was “two-fold decrease”.

Question: And the “cellular platinum accumulation rate in MDCK-MOCK, disopyramide-treated” value ([4]; 3 μM, disopyramide 150 μM)?
Answer: Its value is 3.23±0.31 pmol/mg protein-hour.

Question: And the “cellular platinum accumulation rate in MDCK-MOCK” value ([4]; drug 3 μM)?
Answer: The value was 2.94±0.11 pmol/mg protein-hr.

Question: What about the “cellular platinum accumulation rate in HEK-hOCT2, cimetidine” value ([5]; 0.3 μM, cimetidine 1.5 mM) of the same compound?
Answer: The value was 1.80±0.13 pmol/mg protein-hr.

Question: And the “cellular platinum accumulation rate in HEK-hOCT2” value ([5]; drug 0.3 μM)?
Answer: Its value is 20.2±1.54 pmol/mg protein-hr.

Question: And the “effect of cimetidine on platinum accumulation / cellular uptake in HEK-MOCK” value [6]?
Answer: Its value is “significant decrease”.

— US20100028259A1, “USE OF ORGANIC CATION TRANSPORTERS FOR CANCER DIAGNOSIS AND THERAPY” (The Regents of the University of California, priority 2006, published 2010)
